In patent US20160368943A1, “SUBSTITUTED PURINE COMPOUNDS” (EPIZYME, INC., priority 2013, published 2016):

How the values were obtained:
[1] = Hepatocyte stability, human; type: in vitro ADME
Description: (§1) Human, Beagle dog, Sprague-Dawley rat, and CD-1 mouse cryopreserved hepatocytes were obtained from XenoTech and stored at −150° C. until use. The hepatocytes were thawed and prepared according to the vendor's instructions, pooled into Krebs Henseleit buffer (KHB, pH 7.4), and kept on ice prior to initiating an experiment. […] The reaction mixture was incubated in a shaking water bath at 37° C. Aliquots of the incubation solutions were sampled at 0, 15, 30, 60, and 120 minutes. The reaction was immediately terminated by the addition of three volumes of ice-cold acetonitrile containing 0.1% formic acid and internal standards. After centrifugation at 1640×g for 10 minutes, the supernatants were transferred into HPLC vials, and the test compound was analyzed by LC-MS/MS. Positive controls, testosterone (20 μM) and 7-hydroxycoumarin (100 μM), were performed in parallel to confirm the enzyme activities of the hepatocytes used.
(§2) Experimental half-lives were transformed to the corresponding intrinsic clearance values and subsequently scaled to predicted in vivo clearance values, using the well-stirred model as previously described (Houston, Biochemical Pharmacology 47(9): 1469-1479, 1994; Obach, Drug Metabolism and Disposition 27(11): 1350-1359, 1999), with appropriate species-specific scaling factors (Barter et al., Current Drug Metabolism 8(1): 33-45, 2007).

[2] = Hepatocyte stability, mouse; type: in vitro ADME, CD-1 mouse
Description: as §1, §2

[3] = Hepatocyte stability, rat; type: in vitro ADME, Sprague-Dawley rat
Description: as §1, §2

In the case of `CC(C)N(C[C@H]1O[C@@H](n2cnc3c(N)ncnc32)[C@H](O)[C@@H]1O)[C@H]1C[C@@H](CCc2nc3cc(C(C)(C)C)ccc3[nH]2)C1` [Compound A, (2R,3R,4S,5R)-2-(6-amino-9H-purin-9-yl)-5-((((1r,3S)-3-(2-(5-(tert-butyl)-1H-benzo[d]imidazol-2-yl)ethyl)cyclobutyl)(isopropyl)amino)methyl)tetrahydrofuran-3,4-diol], the “Scaled Hepatic CL from hepatocytes” value [1] is reported as under 3 mL/min/kg, the hepatocyte CLint at 3 μM ([2]; CD-1, mouse, cryopreserved hepatocytes in suspension, pH 7.4, mouse, 3 μM) is reported as under 4 µL/min/1e6 cells and the “Scaled Hepatic CL from hepatocytes” value ([2]; mouse) is reported as 26 mL/min/kg. The “Hepatocyte CLint” value ([2]; mouse, 3 μM) was 3.5 uL/min/million cells and the “Scaled Hepatic CL from hepatocytes” value [3] was 7 mL/min/kg.
